We go through twelve compounds from patent US12227500B2, “Substituted pyrrolo[2,3-b]pyridines for suppressing toxic endoplasmic reticulum stress” (THE TRUSTEES OF COLUMBIA UNIVERSITY IN THE CITY OF NEW YORK, priority 2018, dated 2025).

The test system of data set [1] is human ES motor neurons. Description: Rescue of CPA toxicity by kinase inhibitors in dilution series (FIG. 3). Particulars: for rescue of CPA toxicity: dilution series, FIG. 3.
For data set [2], the system named is human ES motor neurons carrying the ALS-causing SOD1^A4V mutation. Description: cells. It is filed as cell-based. The settings on record: for EC50 / Emax / viability at 1 µM: Homo sapiens, Neuron, 72 h; for EC50: read-out: EC50; for Emax: read-out: Emax (MN survival % untreated); for viability at 1 µM: CPA (33 μM) + compound (1 μM), read-out: Motor Neuron Survival, % untreated. The protocol: Next, survival assays were performed with all the analogs at once to generate a low-variability dataset. All compounds were evaluated at concentrations ranging from 0.1-3.0 μM (five-point dilution) in three technical replicates and two biological replicates.

A short description of data set [3]: Plasma and brain concentration 30 min after IP injection. The class given is in vivo, mouse. The settings on record: mice, ip dosing; for Kp at 30 min / concentration at 30 min: male, C57BL6/J, mouse; for Kp at 30 min: brain/plasma, read-out: B/P. On the procedure: All studies were performed on 6-week old male C57BL6/J mice that were housed in the Columbia University Medical Center facility in a 12h light/dark cycle with access to food and water ad libitum. All animal procedures were approved by the Columbia University IACUC. […] Animals were weighed and injected once intraperitoneally (IP) at the indicated dose (10 or 20 mg/kg). After 30 min, animals were deeply anesthetized with 2.5% Avertin. Whole blood was collected by cardiac puncture in tubes containing 0.5M EDTA as an anticoagulant, and centrifuged for 10 min at 845 rcf at 4° to isolate plasma. Following cardiac puncture, animals were decapitated and brains were dissected and weighed. Brain samples were homogenized with a glass dounce homogenizer in 5 volumes of ddH2O. Brain and plasma samples were snap frozen in liquid nitrogen and stored at −80° C. before further processing.
The plasma samples were transferred to Eppendorf tubes (50 μL per sample) and diluted with acetonitrile (200 μL). The samples were sonicated for 1 minute followed by centrifugation at 16,000 rpm for 10 minutes. The supernatant was transferred to another Eppendorf tube and the solvent evaporated overnight. The samples were reconstituted in a mixture of 40 μL acetonitrile and 10 μL water transferred to a sample vial with insert, and analyzed by LC-MS.
The homogenized brain samples (250 μL) were transferred to Eppendorf tubes and diluted with acetonitrile (750 μL). The samples were sonicated for 1 minute followed by centrifugation at 16,000 rpm for 10 minutes. The supernatant (900 μL) was transferred to another Eppendorf tube and the solvent evaporated overnight. The samples were reconstituted in a mixture of 80 μL acetonitrile and 20 μL water, transferred to a sample vial with insert, and analyzed by LC-MS.
LC-MS analysis was performed on a platform comprising a Thermo Scientific Dionex Ultimate 3000 and a Bruker amaZon SL equipped with an electrospray ionization source controlled by Bruker Hystar 3.2. The compound concentration in each plasma sample was determined using a calibration curve. Chromatographic separation was performed by injecting 10 μL of the sample onto an Agilent Eclipse Plus C18 column (2.1×50 mm, 3.5 μm) maintained at 20° C. The flow rate was maintained at 400 μL/min. The initial flow conditions were 60% solvent A (water containing 0.1% acetic acid) and 40% solvent B (methanol containing 0.1% acetic acid). Solvent B was raised to 60% over 0.25 minutes and to 70% by 6.75 minutes.

Data set [4] can be described thus: in vitro. Particulars: CD-1, mouse, liver microsomes, pH 7.4. (In general: Liver microsomes are a subcellular fraction often used to study metabolism.)
Data set [5] addresses HGK/MAP4K4 (Homo sapiens, UniProt O95819). Description: Radiolabeled ATP kinase assay (Reaction Biology Corp.), HGK. The settings on record: 10 μM ATP, read-out: % Enzyme Activity (relative to DMSO controls), HGK/MAP4K4, Data 1; for remaining activity at 0.025 µM: [Cmpd] 0.025 μM; for remaining activity at 0.1 µM: [Cmpd] 0.1 μM. The class given is biochemical. Set-up: purchased Reaction Biology Corp. The protocol: (§1) Meanwhile, the same analogs were analyzed in a radiolabeled ATP assay (10 μM ATP; Reaction Biology Corp.) to compare the extent to which they could inhibit the activity of HGK, MLK1, or MLK3 in a cell-free environment (Table S3 and S4).

In data set [6] the target is T1, MLK3/MAP3K11 (Homo sapiens, UniProt Q16584).
T1 construct: purchased Reaction Biology Corp
T1 sequence (Q16584 whole entry): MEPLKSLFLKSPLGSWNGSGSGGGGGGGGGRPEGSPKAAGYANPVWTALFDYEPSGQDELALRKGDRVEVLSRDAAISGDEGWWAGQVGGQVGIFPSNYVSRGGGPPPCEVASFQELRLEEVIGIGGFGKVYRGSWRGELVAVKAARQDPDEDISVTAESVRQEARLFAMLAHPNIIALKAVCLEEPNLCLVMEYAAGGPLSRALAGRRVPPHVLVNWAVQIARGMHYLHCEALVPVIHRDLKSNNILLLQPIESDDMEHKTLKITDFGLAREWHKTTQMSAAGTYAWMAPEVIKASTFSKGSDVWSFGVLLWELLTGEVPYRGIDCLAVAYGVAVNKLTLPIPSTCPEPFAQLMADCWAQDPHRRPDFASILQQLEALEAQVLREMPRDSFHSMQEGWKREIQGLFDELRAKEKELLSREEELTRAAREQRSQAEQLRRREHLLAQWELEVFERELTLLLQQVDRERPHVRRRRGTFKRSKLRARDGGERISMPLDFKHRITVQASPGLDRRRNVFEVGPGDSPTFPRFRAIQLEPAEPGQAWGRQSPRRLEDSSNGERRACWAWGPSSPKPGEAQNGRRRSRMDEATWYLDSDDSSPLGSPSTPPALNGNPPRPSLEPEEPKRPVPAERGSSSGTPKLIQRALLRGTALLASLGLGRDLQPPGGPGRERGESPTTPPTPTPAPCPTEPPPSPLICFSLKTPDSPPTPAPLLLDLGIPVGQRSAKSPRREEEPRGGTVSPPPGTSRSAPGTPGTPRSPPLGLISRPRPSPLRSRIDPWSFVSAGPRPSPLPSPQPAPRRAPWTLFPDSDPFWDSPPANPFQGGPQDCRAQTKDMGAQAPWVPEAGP
Description: Radiolabeled ATP kinase assay (Reaction Biology Corp.), MLK3. It is filed as biochemical. Particulars: [Cmpd] 0.1 μM; 10 μM ATP. The protocol:
as §1

Data set [7] has as its target T2, MLK1/MAP3K9 (Homo sapiens, UniProt P80192).
T2 construct: purchased Reaction Biology Corp
In words: Radiolabeled ATP kinase assay (Reaction Biology Corp.), MLK1. The settings on record: [Cmpd] 0.1 μM, 10 μM ATP. It is filed as biochemical. The protocol:
as §1

For data set [8], the system named is ESC-derived spinal motor neurons and interneurons. Description: Toxicity of ER stressors in mouse ESC-derived spinal neuron cultures. It is filed as cell-based. The settings on record: co-cultures, increasing concentrations. From the text: One of the selective stressors that we identified was cyclopiazonic acid (CPA), a mycotoxin that reversibly blocks the sarcoendoplasmic reticulum-associated calcium ATPse (SERCA). SERCA is responsible for sequestering calcium from the cytoplasm into the endoplasmic reticulum (ER) (Goeger et al. 1988). SERCA inhibition lowers calcium concentration in the ER, leading to dysfunction of protein folding, activation of the unfolded protein response, ER stress, and apoptosis (Doutheil et al. 1997). […]. For all subsequent experiments, unless stated otherwise, motor neurons were treated with 7.5 μM CPA.
[…]. […] […].
For this analysis, we generated a new ESC line that expresses tdTomato in dI4 and dIL dorsal spinal inhibitory interneurons derived from Ptf1α-expressing progenitors (Hoang et al. 2017, unpublished data). We differentiated this line under conditions that promote the specification of dorsal interneuron identity. FACS-purified tdTomato-expressing interneurons were co-cultured with FACS-purified GFP-expressing spinal motor neurons (FIG. 16E and FIG. 16G).
To strengthen the link between the activation of ER stress and motor neuron degeneration, we extended our study to include two additional compounds that activate ER stress: thapsigargin, a drug that acts similarly to CPA by inhibiting SERCA pumps, but is irreversible (Lytton et al. 1991), and tunicamycin, a drug that triggers ER stress in a calcium-independent manner by inhibiting protein N-glycosylation in the ER (Oslowski et al. 2011). […] Thus, the motor neuron-toxic effects of CPA are likely related to its activation of ER stress pathways and not to its effects on calcium levels or other off-target effects (FIG. 16G).

The test system of data set [9] is human stem cell-derived motor neurons derived from a healthy patient. Description: CPA survival assay, wild-type human stem cell-derived motor neurons. The settings on record: 8-point dilution series.
The mark [10] stands for this setting: read-out: % Enzyme Activity Remaining (relative to DMSO controls), MLK1/MAP3K9, Data 1.
The mark [11] stands for this setting: read-out: % Enzyme Activity Remaining (relative to DMSO controls), MLK1/MAP3K9, Data 2.

Values joined by “and” are separate entries in the source; they are usually repeats but may differ in a detail not shown here. Equal values may be shown once. Read-outs that look alike come from different tables or passages of the source.

The EC50 is the concentration giving half of the maximal effect. In general, half-life refers to how long it takes for the measured level to halve.

Sequence of HGK/MAP4K4 (O95819 whole entry): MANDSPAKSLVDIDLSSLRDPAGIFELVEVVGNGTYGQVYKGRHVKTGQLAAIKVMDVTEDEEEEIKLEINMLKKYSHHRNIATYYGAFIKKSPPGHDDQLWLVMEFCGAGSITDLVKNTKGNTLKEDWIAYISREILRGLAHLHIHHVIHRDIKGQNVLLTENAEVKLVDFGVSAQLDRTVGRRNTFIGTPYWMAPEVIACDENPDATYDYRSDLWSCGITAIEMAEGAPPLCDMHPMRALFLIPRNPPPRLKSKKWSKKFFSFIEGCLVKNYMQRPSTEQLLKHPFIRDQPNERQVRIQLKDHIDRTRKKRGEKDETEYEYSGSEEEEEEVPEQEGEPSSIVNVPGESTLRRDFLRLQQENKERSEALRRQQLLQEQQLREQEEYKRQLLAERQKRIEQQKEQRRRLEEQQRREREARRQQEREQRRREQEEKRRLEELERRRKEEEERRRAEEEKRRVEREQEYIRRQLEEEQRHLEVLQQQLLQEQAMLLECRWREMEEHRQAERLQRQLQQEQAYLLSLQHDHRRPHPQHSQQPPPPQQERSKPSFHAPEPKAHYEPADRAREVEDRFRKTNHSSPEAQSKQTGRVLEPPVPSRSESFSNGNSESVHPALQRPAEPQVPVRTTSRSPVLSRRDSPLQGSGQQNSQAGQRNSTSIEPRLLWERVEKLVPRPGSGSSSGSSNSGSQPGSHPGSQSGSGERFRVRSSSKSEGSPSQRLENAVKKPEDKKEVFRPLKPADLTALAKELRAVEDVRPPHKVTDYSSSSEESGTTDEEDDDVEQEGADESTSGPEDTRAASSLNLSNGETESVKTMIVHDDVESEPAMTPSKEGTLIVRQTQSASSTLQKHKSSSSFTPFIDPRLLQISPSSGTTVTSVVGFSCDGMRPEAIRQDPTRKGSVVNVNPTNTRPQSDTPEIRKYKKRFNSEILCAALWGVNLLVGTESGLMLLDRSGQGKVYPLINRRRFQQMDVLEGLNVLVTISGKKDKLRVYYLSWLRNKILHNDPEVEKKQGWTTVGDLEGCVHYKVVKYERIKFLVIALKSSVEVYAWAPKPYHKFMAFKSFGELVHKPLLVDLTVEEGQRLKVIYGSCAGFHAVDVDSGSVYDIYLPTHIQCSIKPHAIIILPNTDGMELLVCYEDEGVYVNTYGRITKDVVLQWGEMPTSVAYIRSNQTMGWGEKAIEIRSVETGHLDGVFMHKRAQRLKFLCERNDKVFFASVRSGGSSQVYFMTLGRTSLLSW
T2 sequence (P80192 whole entry): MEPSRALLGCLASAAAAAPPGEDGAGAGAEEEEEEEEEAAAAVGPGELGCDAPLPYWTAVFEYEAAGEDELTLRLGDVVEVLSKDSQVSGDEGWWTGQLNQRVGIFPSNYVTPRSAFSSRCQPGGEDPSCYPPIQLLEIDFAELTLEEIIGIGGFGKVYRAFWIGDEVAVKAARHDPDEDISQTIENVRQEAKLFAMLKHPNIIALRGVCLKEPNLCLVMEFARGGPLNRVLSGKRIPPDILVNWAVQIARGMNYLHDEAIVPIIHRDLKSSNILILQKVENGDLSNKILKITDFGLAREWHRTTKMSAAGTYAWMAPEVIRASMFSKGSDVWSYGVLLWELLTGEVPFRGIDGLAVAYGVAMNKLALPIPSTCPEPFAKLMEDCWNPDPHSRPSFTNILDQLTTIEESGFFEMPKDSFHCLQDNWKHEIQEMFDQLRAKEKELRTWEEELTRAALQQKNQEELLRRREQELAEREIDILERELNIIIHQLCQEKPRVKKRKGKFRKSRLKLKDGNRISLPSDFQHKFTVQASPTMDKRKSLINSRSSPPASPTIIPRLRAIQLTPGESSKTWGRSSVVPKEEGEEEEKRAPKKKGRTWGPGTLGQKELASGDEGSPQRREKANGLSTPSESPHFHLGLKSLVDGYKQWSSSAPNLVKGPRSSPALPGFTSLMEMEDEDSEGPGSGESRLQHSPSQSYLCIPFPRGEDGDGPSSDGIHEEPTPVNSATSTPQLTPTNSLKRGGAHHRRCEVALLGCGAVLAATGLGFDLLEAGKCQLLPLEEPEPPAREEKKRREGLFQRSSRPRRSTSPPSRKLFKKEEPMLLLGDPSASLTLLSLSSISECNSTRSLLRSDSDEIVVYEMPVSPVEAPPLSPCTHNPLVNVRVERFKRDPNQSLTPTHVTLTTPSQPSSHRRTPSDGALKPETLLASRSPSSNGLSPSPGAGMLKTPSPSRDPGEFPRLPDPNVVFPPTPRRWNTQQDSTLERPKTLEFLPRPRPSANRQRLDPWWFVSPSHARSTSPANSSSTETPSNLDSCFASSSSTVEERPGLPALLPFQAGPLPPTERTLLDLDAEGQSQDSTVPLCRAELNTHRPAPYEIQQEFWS

Take JAK3 inhibitor IV: the “rescue of CPA toxicity” value in [1] is reported as “dose-dependent rescue of CPA toxicity”.
Take `O[C@@H]1CCN(Cc2ccc(-c3cnc4[nH]cc(-c5cccc(Cl)c5)c4c3)cc2)C1` [Compound 12l, (R)-1-(4-(3-(3-Chlorophenyl)-1H-pyrrolo[2,3-b]pyridin-5-yl)benzyl)pyrrolidin-3-ol]: the concentration for a half-maximal effect (EC50) in [2] (CPA 33 μM) is 90 nM. Also, in data set [2] (CPA 33 μM), the Emax was 115%. The Kp at 30 min in [3] (10 mg/kg) came out at 1.7. Besides, the concentration at 30 min in data set [3] (10 mg/kg, read-out: brain) is < 1000 ng/g and > 2.48 µM; in data set [3] (10 mg/kg, read-out: plasma), < 600 ng/mL and < 1.49 µM. Besides, the “toxicity at this concentration” value in [3] (20 mg/kg) is recorded as “^cCompound was toxic at this concentration”.
Consider `CN1CCN(Cc2ccc(-c3cnc4[nH]cc(-c5cccc6[nH]ncc56)c4c3)cc2)CC1` [Compound 7aa, 4-(5-(4-((4-Methylpiperazin-1-yl)methyl)phenyl)-1H-pyrrolo[2,3-b]pyridin-3-yl)-1H-indazole], for which, in data set [2] (CPA 33 μM), the concentration giving a half-maximal response (EC50) was found to be 208 nM and the Emax was 134%. Also, the viability at 1 µM in data set [2] turned out to be 112%. This compound showed a half-life at 20 μM in data set [4] of 9 min. Besides, in [5], the remaining activity at 0.025 µM stood at 2.75% and the remaining activity at 0.1 µM is -1.36%. For the same compound, in [6], the “% Enzyme Activity Remaining (relative to DMSO controls), MLK3/MAP3K11, Data 1” value was 31.88% and the “% Enzyme Activity Remaining (relative to DMSO controls), MLK3/MAP3K11, Data 2” value is recorded as 31.78%. Besides, the remaining activity at 0.1 µM in [7] (setting [10]) turned out to be 52.9%. Besides, the remaining activity at 0.1 µM in data set [7] (setting [11]) is 51.7%.
With `Cn1cc(/C=C2\C(=O)Nc3ccc(S(N)(=O)=O)cc32)c2ccccc21` [Syk inhibitor], the “rescue of CPA toxicity” value in [1] was “dose-dependent rescue of CPA toxicity”.
For `CN1CC2CCC(C1)N2Cc1ccc(-c2cnc3[nH]cc(-c4cccc(Cl)c4)c3c2)cc1` [Compound 12f, 3-(3-Chlorophenyl)-5-(4-((3-methyl-3,8-diazabicyclo[3.2.1]octan-8-yl)methyl)phenyl)-1H-pyrrolo[2,3-b]pyridine], in [2] (CPA 33 μM), the “concentration giving complete rescue from CPA” value came to 0.3 µM, the EC50 was found to be 110 nM and the Emax was found to be 116%. Moreover, the half-life at 20 μM in data set [4] worked out at 158 min.
tunicamycin: the “sensitivity of spinal motor neurons vs dorsal interneurons” value in data set [8] is recorded as “selectively sensitive”.
Turning to `CN1CCN(Cc2ccc(-c3cnc4[nH]cc(-c5cccc(F)c5)c4c3)cc2)CC1` [Compound 7y, 3-(3-Fluorophenyl)-5-(4-((4-methylpiperazin-1-yl)methyl)phenyl)-1H-pyrrolo[2,3-b]pyridine], in data set [2] (CPA 33 μM), the EC50 is 433 nM and the Emax was found to be 104%. The viability at 1 µM in data set [2] stood at 86.4%. The half-life at 20 μM in [4] is more than 30 min. In [5], the remaining activity at 0.025 µM came out at 7.85% and the remaining activity at 0.1 µM came out at 1.53%. Further, in data set [6], the “% Enzyme Activity Remaining (relative to DMSO controls), MLK3/MAP3K11, Data 1” value is listed as 40.75% and the “% Enzyme Activity Remaining (relative to DMSO controls), MLK3/MAP3K11, Data 2” value was found to be 43.09%. In data set [7] (setting [10]), the remaining activity at 0.1 µM stood at 57.1%. The remaining activity at 0.1 µM in data set [7] (setting [11]) was found to be 58.1%.
For the compound `CCN(CC)C(=O)c1ccc(Nc2nc(OCC3CCCCC3)c3[nH]cnc3n2)cc1` [NU6140], in data set [1], the “rescue of CPA toxicity” value is listed as “dose-dependent rescue of CPA toxicity”.
With `CCSCc1ccc2c(c1)c1c3c(c4c5cc(CSCC)ccc5n5c4c1n2[C@H]1C[C@](O)(C(=O)OC)[C@]5(C)O1)CNC3=O` [CEP1347], the “rescue of CPA toxicity” value in data set [1] was “dose-dependent rescue of CPA toxicity”.
For `O[C@@H]1CCN(Cc2ccc(-c3cnc4[nH]cc(-c5cccc(F)c5)c4c3)cc2)C1` [Compound 12i, (R)-1-(4-(3-(3-Fluorophenyl)-1H-pyrrolo[2,3-b]pyridin-5-yl)benzyl)pyrrolidin-3-ol], the half-maximal effective concentration (EC50) in data set [2] (CPA 33 μM) turned out to be 50 nM. Moreover, the Emax in data set [2] (CPA 33 μM) was 115%. Besides, the Kp at 30 min in [3] (10 mg/kg) was 3.7; in [3] (20 mg/kg), 2.8. The concentration at 30 min was 2240 ng/g and 5.78 µM in data set [3] (10 mg/kg, read-out: brain); < 600 ng/mL and < 1.55 µM in data set [3] (10 mg/kg, read-out: plasma); 9780 ng/g and 25.2 µM in [3] (20 mg/kg, read-out: brain); 3490 ng/mL and 9 µM in data set [3] (20 mg/kg, read-out: plasma).
In the case of `C/C=C(/C)C(=O)O[C@H]1C(C)=C2[C@H]([C@@H]1OC(=O)CCCCCCC)[C@@](C)(OC(C)=O)C[C@H](OC(=O)CCC)[C@@]1(O)[C@H]2OC(=O)[C@@]1(C)O` [thapsigargin], in [8], the “sensitivity of spinal motor neurons vs dorsal interneurons” value is reported as “selectively sensitive”.
Regarding `CCC(=O)Nc1cccc(Oc2nc(Nc3ccc(N4CCN(C)CC4)cc3OC)ncc2Cl)c1` [WZ4003], the “rescue of CPA toxicity” value in data set [9] and in [1] was “unable to rescue CPA toxicity” in each case. For the same compound, the “concentration that potentiated CPA-induced neurodegeneration and was toxic without CPA” value in data set [1] is not below 1000 nM.
